Assay [1] concerns the target Kelch-like ECH-associated protein 1 (Homo sapiens, UniProt Q14145). Briefly: Displacement of FITC-LDEETGEFL-NH2 from human KEAP1 Kelch domain (322 to 609 residues) measured after 30 mins by fluorescence polarization assay. A general note: Polarisation of emitted light reports the rotation of a fluorescent probe.
The target of assay [2] is T1, Nuclear factor erythroid 2-related factor 2 (Homo sapiens) (UniProt Q16236).
T1 sequence (whole entry): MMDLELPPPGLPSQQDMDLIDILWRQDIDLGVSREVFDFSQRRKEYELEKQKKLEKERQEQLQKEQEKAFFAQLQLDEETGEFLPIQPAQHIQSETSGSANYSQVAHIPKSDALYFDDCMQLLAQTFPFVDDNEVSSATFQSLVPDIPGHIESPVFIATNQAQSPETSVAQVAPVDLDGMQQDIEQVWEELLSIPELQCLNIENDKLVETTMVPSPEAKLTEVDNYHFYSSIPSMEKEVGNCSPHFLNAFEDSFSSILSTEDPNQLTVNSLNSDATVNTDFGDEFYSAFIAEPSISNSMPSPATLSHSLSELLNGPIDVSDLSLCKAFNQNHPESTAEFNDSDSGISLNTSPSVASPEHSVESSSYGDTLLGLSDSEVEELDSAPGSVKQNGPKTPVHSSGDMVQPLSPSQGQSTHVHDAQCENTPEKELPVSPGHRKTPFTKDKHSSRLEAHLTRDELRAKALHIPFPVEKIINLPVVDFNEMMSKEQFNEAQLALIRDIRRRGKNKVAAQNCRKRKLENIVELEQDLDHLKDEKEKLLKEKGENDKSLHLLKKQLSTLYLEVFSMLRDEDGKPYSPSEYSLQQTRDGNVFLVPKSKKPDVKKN
Briefly: Activation of Nrf2 (unknown origin) stably transfected in human HepG2-ARE-C8 cells assessed as increase in ARE-driven luciferase activity at 0.01 uM by luciferase reporter gene assay relative to control. The assay is classed as cell-based.

Assay [3] deals with T1, Nuclear factor erythroid 2-related factor 2 (Homo sapiens). Briefly: Activation of Nrf2 (unknown origin) stably transfected in human HepG2-ARE-C8 cells assessed as increase in ARE-driven luciferase activity at 0.1 uM by luciferase reporter gene assay relative to control. The assay is classed as cell-based.
For assay [4] the target is unchanged. Briefly: Activation of Nrf2 (unknown origin) stably transfected in human HepG2-ARE-C8 cells assessed as increase in ARE-driven luciferase activity at 1 uM by luciferase reporter gene assay relative to control. The assay is classed as cell-based. On the technique in general: A reporter such as luciferase makes a cellular process visible.
Assay [5] has the same target. Briefly: Activation of Nrf2 (unknown origin) stably transfected in human HepG2-ARE-C8 cells assessed as increase in ARE-driven luciferase activity at 5 uM by luciferase reporter gene assay relative to control. The assay is classed as cell-based.
The target is the same in assay [6]. Briefly: Activation of Nrf2 (unknown origin) stably transfected in human HepG2-ARE-C8 cells assessed as increase in ARE-driven luciferase activity at 10 uM by luciferase reporter gene assay relative to control. In kind it is cell-based.
Assay [7] has the same target. Briefly: Activation of Nrf2 (unknown origin) stably transfected in human HepG2-ARE-C8 cells assessed as increase in ARE-driven luciferase activity at 20 uM by luciferase reporter gene assay relative to control. In kind it is cell-based.

Structures are written as SMILES.

In general, IC50 refers to the concentration needed to halve the response being measured. Read a high IC50 as a need for much substance.

Kelch-like ECH-associated protein 1, sequence (Q14145 whole entry, the tested form may be a part): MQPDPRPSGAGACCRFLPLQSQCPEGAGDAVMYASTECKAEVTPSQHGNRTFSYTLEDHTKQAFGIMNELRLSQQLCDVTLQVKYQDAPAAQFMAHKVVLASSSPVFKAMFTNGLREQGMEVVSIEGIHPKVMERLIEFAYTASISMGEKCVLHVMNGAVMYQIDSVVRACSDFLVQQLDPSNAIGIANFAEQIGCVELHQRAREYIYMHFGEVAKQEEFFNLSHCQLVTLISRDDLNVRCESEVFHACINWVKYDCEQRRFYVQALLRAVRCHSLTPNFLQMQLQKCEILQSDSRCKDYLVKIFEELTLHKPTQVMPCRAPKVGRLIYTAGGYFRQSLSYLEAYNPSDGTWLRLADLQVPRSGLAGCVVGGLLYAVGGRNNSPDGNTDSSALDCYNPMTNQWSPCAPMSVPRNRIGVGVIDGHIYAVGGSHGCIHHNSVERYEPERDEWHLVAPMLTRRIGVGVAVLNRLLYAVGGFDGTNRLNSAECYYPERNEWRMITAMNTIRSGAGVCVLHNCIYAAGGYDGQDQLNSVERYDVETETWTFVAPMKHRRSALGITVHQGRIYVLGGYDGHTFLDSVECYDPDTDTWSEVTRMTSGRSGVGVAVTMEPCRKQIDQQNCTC

With `COc1ccc(S(=O)(=O)Nc2ccc(N[C@@H](CO)C(=O)O)c3ccccc23)cc1`, the IC50 in assay [1] is above 50 µM.

Turning to `CC(C)(C)c1cc(O)ccc1O`, the fold change (FC) in assay [2] amounted to 1.04; in assay [3], 1.02; in assay [4] it was 1.46; in assay [5], 2.27; in assay [6], 3.38; in assay [7] it was 4.87.

In assay [1], `COc1ccc(S(=O)(=O)N(CC(=O)O)c2ccc(N[C@@H](CO)C(=O)O)c3ccccc23)cc1` displayed an IC50 above 50 µM.

On to `COc1ccc(S(=O)(=O)Nc2ccc(N[C@H](C(=O)O)C(C)C)c3ccccc23)cc1`, for which the concentration for half-maximal inhibition (IC50) in assay [1] is above 50 µM.

`COc1ccc(S(=O)(=O)Nc2ccc(N[C@@H](Cc3ccc(O)cc3)C(=O)O)c3ccccc23)cc1` showed an IC50 in assay [1] above 50 µM.

As to `COc1ccc(S(=O)(=O)Nc2ccc(N[C@@H](Cc3c[nH]c4ccccc34)C(=O)O)c3ccccc23)cc1`, in assay [1], the IC50 is above 50 µM.

`COc1ccc(S(=O)(=O)Nc2ccc(N[C@@H](CC(C)C)C(=O)O)c3ccccc23)cc1` returned an IC50 in assay [1] above 50 µM.

`COc1ccc(S(=O)(=O)Nc2ccc(N[C@@H](CCS(C)(=O)=O)C(=O)O)c3ccccc23)cc1` showed an IC50 in assay [1] above 50 µM.

In turn, `COc1ccc(S(=O)(=O)Nc2ccc(N[C@@H](C)C(=O)O)c3ccccc23)cc1` registered an IC50 in assay [1] above 50 µM.

Consider `COc1ccc(S(=O)(=O)Nc2ccc(N[C@H](C(=O)O)C(C)(C)C)c3ccccc23)cc1`, for which the IC50 in assay [1] is above 50 µM.

These data come from ChEMBL document CHEMBL4364299, “Discovery of a Potent Kelch-Like ECH-Associated Protein 1-Nuclear Factor Erythroid 2-Related Factor 2 (Keap1-Nrf2) Protein-Protein Interaction Inhibitor with Natural Proline Structure as a Cytoprotective Agent against Acetaminophen-Induced Hepatotoxicity” (J Med Chem, 2019).
